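Assay format: 96-well plates, 48-hour exposure. GI50 = concentration required for 50% inhibition of growth. At the TGI there is no net growth.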
Assays:
Test in all cases: growth of human tumour cells (NCI), 48 h
UO-31 renal = system: UO-31 renal
SN12C renal = system: SN12C renal
SK-OV-3 ovarian = system: SK-OV-3 ovarian
MALME-3M melanoma = system: MALME-3M melanoma
EKVX NSCLC = system: EKVX NSCLC
CAKI-1 renal = system: CAKI-1 renal
OVCAR-8 ovarian = system: OVCAR-8 ovarian
SW-620 colon = system: SW-620 colon
T-47D breast = system: T-47D breast
A498 renal = system: A498 renal
SK-MEL-28 melanoma = system: SK-MEL-28 melanoma
NCI-H226 lung = system: NCI-H226 lung
UACC-62 melanoma = system: UACC-62 melanoma
HOP-62 NSCLC = system: HOP-62 NSCLC
SF-268 CNS = system: SF-268 CNS
HCC-2998 colon = system: HCC-2998 colon
TK-10 renal = system: TK-10 renal
RXF 393 renal = system: RXF 393 renal
SNB-75 CNS = system: SNB-75 CNS
U251 CNS = system: U251 CNS
OVCAR-4 ovarian = system: OVCAR-4 ovarian
786-0 renal = system: 786-0 renal
MCF7 breast = system: MCF7 breast
NCI-H460 lung = system: NCI-H460 lung
OVCAR-3 ovarian = system: OVCAR-3 ovarian
M14 melanoma = system: M14 melanoma
MDA-MB-231 breast = system: MDA-MB-231 breast
SF-295 CNS = system: SF-295 CNS
A549 NSCLC = system: A549 NSCLC
ACHN renal = system: ACHN renal
PC-3 prostate = system: PC-3 prostate
RPMI-8226 leukemia = system: RPMI-8226 leukemia
SNB-19 CNS = system: SNB-19 CNS
BT-549 breast = system: BT-549 breast
UACC-257 melanoma = system: UACC-257 melanoma
DU-145 prostate = system: DU-145 prostate
HT29 colon = system: HT29 colon
IGROV1 ovarian = system: IGROV1 ovarian
CCRF-CEM leukemia = system: CCRF-CEM leukemia
NCI-H522 lung = system: NCI-H522 lung
SK-MEL-2 melanoma = system: SK-MEL-2 melanoma
SF-539 CNS = system: SF-539 CNS
SR leukemia = system: SR leukemia
SK-MEL-5 melanoma = system: SK-MEL-5 melanoma
KM12 colon = system: KM12 colon
NCI/ADR-RES ovarian = system: NCI/ADR-RES ovarian
HCT-15 colon = system: HCT-15 colon
HS 578T breast = system: HS 578T breast
COLO 205 colon = system: COLO 205 colon
OVCAR-5 ovarian = system: OVCAR-5 ovarian
MDA-MB-435 = system: MDA-MB-435
MOLT-4 leukemia = system: MOLT-4 leukemia
K-562 leukemia = system: K-562 leukemia

CC(C)Sc1nc(Nc2ccc(S(N)(=O)=O)cc2)c(C#N)c(-c2ccc(F)cc2)n1
GI50 (UO-31 renal): 2.39 µM | TGI (UO-31 renal): 8.92 µM | GI50 (SN12C renal): 2.38 µM | TGI (SN12C renal): 5.99 µM | GI50 (SK-OV-3 ovarian): 3.04 µM | TGI (SK-OV-3 ovarian): 8.94 µM | GI50 (MALME-3M melanoma): 3.2 µM | TGI (MALME-3M melanoma): 10.3 µM | GI50 (EKVX NSCLC): 3.31 µM | TGI (EKVX NSCLC): 14.1 µM | GI50 (CAKI-1 renal): 1.78 µM | TGI (CAKI-1 renal): 3.61 µM | GI50 (OVCAR-8 ovarian): 3.98 µM | TGI (OVCAR-8 ovarian): 15.7 µM | GI50 (SW-620 colon): 3.84 µM | TGI (SW-620 colon): 22.8 µM | GI50 (T-47D breast): 3.46 µM | TGI (T-47D breast): 20.3 µM | GI50 (A498 renal): 2.82 µM | GI50 (SK-MEL-28 melanoma): 14.6 µM | TGI (SK-MEL-28 melanoma): 37.7 µM | GI50 (NCI-H226 lung): 2.14 µM | TGI (NCI-H226 lung): 5.54 µM | GI50 (UACC-62 melanoma): 10.3 µM | TGI (UACC-62 melanoma): 26.3 µM | GI50 (HOP-62 NSCLC): 3.12 µM | TGI (HOP-62 NSCLC): 10.7 µM | GI50 (SF-268 CNS): 5.49 µM | TGI (SF-268 CNS): 30.6 µM | GI50 (HCC-2998 colon): 10.7 µM | TGI (HCC-2998 colon): 27.6 µM | GI50 (TK-10 renal): 3.08 µM | TGI (RXF 393 renal): 4.47 µM | GI50 (SNB-75 CNS): 2.49 µM | TGI (SNB-75 CNS): 9.2 µM | GI50 (U251 CNS): 1.81 µM | TGI (U251 CNS): 3.54 µM | GI50 (OVCAR-4 ovarian): 2.1 µM | TGI (OVCAR-4 ovarian): 4.92 µM | GI50 (786-0 renal): 3.31 µM | TGI (786-0 renal): 11.1 µM | TGI (MCF7 breast): 32.1 µM | TGI (NCI-H460 lung): 5.57 µM | GI50 (OVCAR-3 ovarian): 3.02 µM | TGI (OVCAR-3 ovarian): 8.51 µM | GI50 (M14 melanoma): 5.59 µM | TGI (M14 melanoma): 23.7 µM | GI50 (MDA-MB-231 breast): 2.86 µM | TGI (MDA-MB-231 breast): 8.1 µM | GI50 (SF-295 CNS): 1.95 µM | TGI (SF-295 CNS): 3.73 µM | TGI (A549 NSCLC): 10.4 µM | GI50 (ACHN renal): 3.07 µM | TGI (ACHN renal): 9.12 µM | GI50 (PC-3 prostate): 4.84 µM | TGI (PC-3 prostate): 19 µM | GI50 (RPMI-8226 leukemia): 9.22 µM | TGI (RPMI-8226 leukemia): 64.3 µM | GI50 (SNB-19 CNS): 2.85 µM | TGI (SNB-19 CNS): 8.01 µM | GI50 (BT-549 breast): 9.29 µM | TGI (BT-549 breast): 35.4 µM | GI50 (UACC-257 melanoma): 14.4 µM | TGI (UACC-257 melanoma): 47.8 µM | GI50 (DU-145 prostate): 5.68 µM | TGI (DU-145 prostate): > 100 µM | GI50 (HT29 colon): 2.09 µM | TGI (HT29 colon): 4.77 µM | TGI (IGROV1 ovarian): 20.7 µM | GI50 (CCRF-CEM leukemia): 7.35 µM | GI50 (NCI-H522 lung): 8 µM | GI50 (SK-MEL-2 melanoma): 19 µM | TGI (SK-MEL-2 melanoma): 55.7 µM | TGI (SF-539 CNS): 4.81 µM | GI50 (SR leukemia): 3.73 µM | GI50 (SK-MEL-5 melanoma): 23.3 µM | TGI (SK-MEL-5 melanoma): 77.4 µM | GI50 (KM12 colon): 6.92 µM | TGI (KM12 colon): > 100 µM | GI50 (NCI/ADR-RES ovarian): 3.24 µM | TGI (HCT-15 colon): > 100 µM | GI50 (HS 578T breast): 2.76 µM | TGI (HS 578T breast): 9.31 µM | GI50 (COLO 205 colon): 7.98 µM | TGI (COLO 205 colon): 30.2 µM | GI50 (OVCAR-5 ovarian): 14.6 µM | TGI (OVCAR-5 ovarian): 62.4 µM | GI50 (MDA-MB-435): 4.35 µM | TGI (MDA-MB-435): 31.9 µM | GI50 (MOLT-4 leukemia): 5.39 µM | GI50 (K-562 leukemia): 4.26 µM
